11 molecules from the SangsterLogP compilation can be followed below.

The structures appear in SMILES notation.

The term logP denotes the decadic logarithm of the partition coefficient of the neutral form, usually between octanol and water. A lower logP goes with lower lipophilicity.

As for `Clc1ccc(C(Cn2ccnc2)OCC2CCCCC2)c(Cl)c1` (stereo unspecified), the logP worked out at 6.5.
Take `C=CCCOC(Cn1ccnc1)c1ccc(Cl)cc1Cl` (stereo unspecified): the logP is 4.33.
To `CC(C)=CCOC(Cn1ccnc1)c1ccc(Cl)cc1Cl` (stereo unspecified) belongs 5.04.
To `CCC(CC)COC(Cn1ccnc1)c1ccc(Cl)cc1Cl` (stereo unspecified) belongs 6.24; to `CCC(CC)OC(Cn1ccnc1)c1ccc(Cl)cc1Cl` (stereo unspecified), 5.13.
To `CCC(C)OC(Cn1ccnc1)c1ccc(Cl)cc1Cl` (stereo unspecified) belongs 4.5; to `C=CCCCOC(Cn1ccnc1)c1ccc(Cl)cc1Cl` (stereo unspecified), 4.94; to `C=C(C)COC(Cn1ccnc1)c1ccc(Cl)cc1Cl` (stereo unspecified), 4.26.
The molecule `CC(C)CCOC(Cn1ccnc1)c1ccc(Cl)cc1Cl` (stereo unspecified) had a logP of 5.71.
Regarding `CCCC(C)OC(Cn1ccnc1)c1ccc(Cl)cc1Cl` (stereo unspecified), the logP was determined as 4.9.
The figure for `CCCCC(CC)COC(Cn1ccnc1)c1ccc(Cl)cc1Cl` (stereo unspecified) is 6.89.
